Assay results from patent US20230079714A1, “1-AMINO-1-CYCLOPROPANECARBOXYLIC ACID FOR THINNING OF FRUITS” (priority 2021, published 2023).

What was measured:
Type in all cases: in vivo
[1] = test system: peach and nectarine trees; experiment: Thinning trials Greece, Italy and Spain 2020, fruit set, Italy site and average of all sites; conditions: pink bud stage; for % Fruit Set (Avg): average of sites; for reduced fruit set on average over control: vs untreated control
Experimental: (§1) Thinning trials were conducted Greece, Italy and Spain in 2020. Specifically, 1-amino-1-cyclopropanecarboxylic acid was prepared at 200, 300, 400, 500, 800 and 1,000 ppm ACC solutions. These solutions were applied as a foliar spray to peach trees (i.e. Spain North, Spain South #1 and Greece #2) and nectarine trees (i.e. Spain South #1 and Greece #1) at pink bud stage. […] Thinning activity is expressed as fruit set (the number of large fruit per 100 flowers).

peach trees = experiment: Thinning trials Greece, Italy and Spain 2020, fruit set, peach sites; conditions: pink bud stage
Experimental: as §1

nectarine trees = experiment: Thinning trials Greece, Italy and Spain 2020, fruit set, nectarine sites; conditions: pink bud stage
Experimental: Thinning trials were conducted Greece, Italy and Spain in 2020. Specifically, 1-amino-1-cyclopropanecarboxylic acid was prepared at 200, 300, 400, 500, 800 and 1,000 ppm ACC solutions. These solutions were applied as a foliar spray to peach trees (i.e. […]

[2] = test system: plum trees (Candy Stripe and Black Majesty); experiment: Plum tree thinning trial, fruit set (Chile, 2020); conditions: for % Fruit Set 'Black Majesty': Black Majesty plum; for % Fruit set 'Candy Stripe': Candy Stripe plum; for % Fruit Set (Avg): average of two varieties; for reduced fruit set on average over control: white bud stage, vs untreated control
Experimental: Thinning trials were conducted Chile in 2020. Specifically, 1-amino-1-cyclopropanecarboxylic acid was prepared at 300 and 450 ppm ACC solutions. These solutions were applied as a foliar spray to two separate varieties of plum trees (i.e. Candy Stripe and Black Majesty) at the white bud stage, the full bloom stage or the petal fall stage. […] Thinning activity is expressed as fruit set (the number of large fruit per 100 flowers).

GlenGlo Peach trees [3] = experiment: Peach tree thinning trial, foliage quality rating; conditions: for Foliage Rating: 1 is the best and 3 is the worst
Experimental: (§2) Thinning trials were conducted in Coloma, Mich. in May 2018. Specifically, 1-amino-1-cyclopropanecarboxylic acid was prepared at 300 and 600 ppm ACC solutions with 0.05% 2-butoxyethanol, poloxalene, monopropylene glycol as a surfactant. These solutions were applied as a foliar spray to GlenGlo Peach trees at pink bud stage, full bloom and after petal fall. Three one year-old shoots were flagged for each treatment on eight replicate trees. Fruit and defoliation were evaluated four weeks after bloom applications and two weeks after the post-petal fall application. […] Thinning activity is expressed as fruit set (the number of large fruit per 100 flowers).

GlenGlo Peach trees [4] = experiment: Peach tree thinning trial, fruit set (Coloma, Mich., 2018); conditions: for reduced fruit set over control: pink bud stage, vs surfactant only control
Experimental: as §2

Foliage Rating (GlenGlo Peach trees [3]; 300 ppm ACC, After Petal Fall): 1.86
Foliage Rating (GlenGlo Peach trees [3]; 300 ppm ACC, Full Bloom): 2.10
Foliage Rating (GlenGlo Peach trees [3]; 300 ppm ACC, Pink Bud Stage): 1.52
Foliage Rating (GlenGlo Peach trees [3]; 600 ppm ACC, After Petal Fall): 1.90
Foliage Rating (GlenGlo Peach trees [3]; 600 ppm ACC, Full Bloom): 2.67
Foliage Rating (GlenGlo Peach trees [3]; 600 ppm ACC, Pink Bud Stage): 1.95
SMILES: NC1(C(=O)O)CC1 [ACC, 1-amino-1-cyclopropanecarboxylic acid]
% Fruit Set (Italy) ([1]; 200 ppm ACC): 33%
% Fruit Set (Avg) ([1]; 200 ppm ACC): 44%
reduced fruit set on average over control ([1]; 200 ppm): 18%
% Fruit Set (Italy) ([1]; 300 ppm ACC): 32%
% Fruit Set (Avg) ([1]; 300 ppm ACC): 40%
reduced fruit set on average over control ([1]; 300 ppm): 30%
% Fruit Set (Italy) ([1]; 400 ppm ACC): 34%
% Fruit Set (Avg) ([1]; 400 ppm ACC): 35%
reduced fruit set on average over control ([1]; 400 ppm): 49%
% Fruit Set (Italy) ([1]; 500 ppm ACC): 32%
% Fruit Set (Avg) ([1]; 500 ppm ACC): 33%
reduced fruit set on average over control ([1]; 500 ppm): 58%
% Fruit Set (Italy) ([1]; 800 ppm ACC): 32%
% Fruit Set (Avg) ([1]; 800 ppm ACC): 25%
reduced fruit set on average over control ([1]; 800 ppm): 108%
% Fruit Set (Italy) ([1]; 1,000 ppm ACC): 31%
% Fruit Set (Avg) ([1]; 1,000 ppm ACC): 24%
reduced fruit set on average over control ([1]; 1,000 ppm): 117%
% Fruit Set (Greece #2) (peach trees; 200 ppm ACC): 33%
% Fruit Set (Spain North) (peach trees; 200 ppm ACC): 50%
% Fruit Set (Spain South#1) (peach trees; 200 ppm ACC): 55%
% Fruit Set (Greece #2) (peach trees; 300 ppm ACC): 32%
% Fruit Set (Spain North) (peach trees; 300 ppm ACC): 44%
% Fruit Set (Spain South#1) (peach trees; 300 ppm ACC): 46%
% Fruit Set (Greece #2) (peach trees; 400 ppm ACC): 28%
% Fruit Set (Spain North) (peach trees; 400 ppm ACC): 33%
% Fruit Set (Spain South#1) (peach trees; 400 ppm ACC): 39%
% Fruit Set (Greece #2) (peach trees; 500 ppm ACC): 28%
% Fruit Set (Spain North) (peach trees; 500 ppm ACC): 25%
% Fruit Set (Spain South#1) (peach trees; 500 ppm ACC): 42%
% Fruit Set (Greece #2) (peach trees; 800 ppm ACC): 23%
% Fruit Set (Spain North) (peach trees; 800 ppm ACC): 7%
% Fruit Set (Spain South#1) (peach trees; 800 ppm ACC): 31%
% Fruit Set (Greece #2) (peach trees; 1,000 ppm ACC): 21%
% Fruit Set (Spain North) (peach trees; 1,000 ppm ACC): 7%
% Fruit Set (Spain South#1) (peach trees; 1,000 ppm ACC): 32%
% Fruit Set (Greece #1) (nectarine trees; 200 ppm ACC): 37%
% Fruit Set (Spain South #2) (nectarine trees; 200 ppm ACC): 55%
% Fruit Set (Greece #1) (nectarine trees; 300 ppm ACC): 32%
% Fruit Set (Spain South #2) (nectarine trees; 300 ppm ACC): 55%
% Fruit Set (Greece #1) (nectarine trees; 400 ppm ACC): 28%
% Fruit Set (Spain South #2) (nectarine trees; 400 ppm ACC): 48%
% Fruit Set (Greece #1) (nectarine trees; 500 ppm ACC): 25%
% Fruit Set (Spain South #2) (nectarine trees; 500 ppm ACC): 45%
% Fruit Set (Greece #1) (nectarine trees; 800 ppm ACC): 19%
% Fruit Set (Spain South #2) (nectarine trees; 800 ppm ACC): 37%
% Fruit Set (Greece #1) (nectarine trees; 1,000 ppm ACC): 16%
% Fruit Set (Spain South #2) (nectarine trees; 1,000 ppm ACC): 37%
% Fruit Set 'Black Majesty' ([2]; 300 ppm ACC, Full Bloom Stage): 9%
% Fruit set 'Candy Stripe' ([2]; 300 ppm ACC, Full Bloom Stage): 4%
% Fruit Set (Avg) ([2]; 300 ppm ACC, Full Bloom Stage): 6.5%
% Fruit Set 'Black Majesty' ([2]; 300 ppm ACC, Petal Fall Stage): 8%
% Fruit set 'Candy Stripe' ([2]; 300 ppm ACC, Petal Fall Stage): 5%
% Fruit Set (Avg) ([2]; 300 ppm ACC, Petal Fall Stage): 6.5%
% Fruit Set 'Black Majesty' ([2]; 300 ppm ACC, White Bud Stage): 4%
% Fruit set 'Candy Stripe' ([2]; 300 ppm ACC, White Bud Stage): 1%
% Fruit Set (Avg) ([2]; 300 ppm ACC, White Bud Stage): 2.5%
reduced fruit set on average over control ([2]; 300 ppm): 21.5%
% Fruit Set 'Black Majesty' ([2]; 450 ppm ACC, Full Bloom Stage): 9%
% Fruit set 'Candy Stripe' ([2]; 450 ppm ACC, Full Bloom Stage): 4%
% Fruit Set (Avg) ([2]; 450 ppm ACC, Full Bloom Stage): 6.5%
% Fruit Set 'Black Majesty' ([2]; 450 ppm ACC, Petal Fall Stage): 8%
% Fruit set 'Candy Stripe' ([2]; 450 ppm ACC, Petal Fall Stage): 3%
% Fruit Set (Avg) ([2]; 450 ppm ACC, Petal Fall Stage): 5.5%
% Fruit Set 'Black Majesty' ([2]; 450 ppm ACC, White Bud Stage): 5%
% Fruit set 'Candy Stripe' ([2]; 450 ppm ACC, White Bud Stage): 1%
% Fruit Set (Avg) ([2]; 450 ppm ACC, White Bud Stage): 3%
reduced fruit set on average over control ([2]; 450 ppm): 21%
foliage quality (GlenGlo Peach trees [3]; application at the pink bud stage): did not significantly reduce foliage quality
% Fruit Set (GlenGlo Peach trees [4]; 300 ppm ACC foliar spray, After Petal Fall): 57%
% Fruit Set (GlenGlo Peach trees [4]; 300 ppm ACC foliar spray, Full Bloom): 10%
% Fruit Set (GlenGlo Peach trees [4]; 300 ppm ACC foliar spray, Pink Bud Stage): 10%
reduced fruit set over control (GlenGlo Peach trees [4]; 300 ppm): 310%
% Fruit Set (GlenGlo Peach trees [4]; 600 ppm ACC foliar spray, After Petal Fall): 45%
% Fruit Set (GlenGlo Peach trees [4]; 600 ppm ACC foliar spray, Full Bloom): 1%
% Fruit Set (GlenGlo Peach trees [4]; 600 ppm ACC foliar spray, Pink Bud Stage): 6%
reduced fruit set over control (GlenGlo Peach trees [4]; 600 ppm): 583%
thinning activity (GlenGlo Peach trees [4]; application after petal fall): did not provide effective thinning activity
